Assay results reported in patent US20150273055A1, “METHODS AND COMPOSITIONS FOR EXPANDING HEMATOPOIETIC STEM AND PROGENITOR CELLS” (UNIVERSITY OF ROCHESTER, priority 2012, published 2015).

What was measured:
[1] = test system: hematopoietic stem and progenitor cells (HSPCs); experiment: Flow cytometric analysis of bone marrow HSPCs from treated mice; type: in vivo, C57B1/6 mice; conditions: for PTH-induced expansion of phenotypic and functional BM HSPCs: αVEGF in combination with PTH
Method: All drugs were administered by intraperitoneal injection. Following 10 days of treatment, mice were sacrificed (on the morning of the eleventh day) and samples were harvested. Hindlimb bone marrow samples were used to generate the data for FIG. 8A as well as for the competitive transplantation of whole bone marrow. Hindlimb bone marrow was harvested by crushing the right hindlimb of each mouse individually using a sterile mortar and pestle in 2.5 mL phosphate buffered saline, filtered through a 40 um cell strainer and placed on ice. For flow cytometric analysis, fresh, filtered bone marrow cells were subjected to a red blood cell lysis procedure using ammonium chloride and then prepared for flow cytometry by staining with a panel of fluorescently-conjugated antibodies recognizing markers of hematopoietic stem and progenitor cells. Samples were then run on an LSR-II 12 color flow cytometer and data was analyzed using TreeStar's FlowJo software. Statistics between treatment groups were analyzed by student's T test. […]

CD105+ mesenchymal cells = experiment: Flow cytometry of CD105+/Endoglin+ CD45− bone marrow mesenchymal cells; type: in vivo, C57B1/6 mice; conditions: bevacizumab with PTH(1-34) or vehicle, 10 days
Method: When administered to a live animal, pimonidazole-HCl precipitates in cells containing<14 μM oxygen or pO2<10 mm Hg and can be detected immunohistochemically. […] FIG. 7A is a schematic of VEGF-blocking experiment. […] FIG. 7B is a graph showing frequency of CD31+ Sca1+ bone marrow endothelial cells isolated from C57B1/6 mice treated as indicated. FIG. 7C is a graph showing frequency of
CD105+/Endoglin+ CD45− non-hematopoietic bone marrow mesenchymal cells isolated from C57B1/6 mice treated as indicated. *P<0.05, **P<0.01

trabecular bone = experiment: Micro-CT analysis of trabecular bone; type: in vivo, mice
Method: The limbs were scanned on a Viva CT 40 (Scanco Medical, Bruttisellen, Switzerland) using a 55-kVp, 145-uA current and a 300-ms integration time with a resolution of 12.5 μm. Trabecular analysis was conducted on a 1.25-mm region 50 μm above the growth plate in the femur and a 625-μm 50 um below the growth plate in the tibia. Cortical analysis was conducted 4.375 mm above/below the growth plate of the femur/tibia for a distance of 375 μm.
Due to the dramatic induction of osteoblastic VEGF-A observed in the setting of PTH stimulation, the functional relevance of this signal in multiple aspects of BM microenvironmental activation was analyzed.

[2] = test system: CD31+ Sca1+ BM endothelial cells; experiment: Flow cytometry of CD31+ Sca1+ bone marrow endothelial cells; type: in vivo, mice; conditions: bevacizumab 0.7 mg/kg once per day with PTH thrice per day 10 days, vs PTH alone
Method: All drugs were administered by intraperitoneal injection. Following 10 days of treatment, mice were sacrificed (on the morning of the eleventh day) and samples were harvested. Hindlimb bone marrow samples were used to generate the data for FIG. 8A as well as for the competitive transplantation of whole bone marrow. Hindlimb bone marrow was harvested by crushing the right hindlimb of each mouse individually using a sterile mortar and pestle in 2.5 mL phosphate buffered saline, filtered through a 40 um cell strainer and placed on ice. For flow cytometric analysis, fresh, filtered bone marrow cells were subjected to a red blood cell lysis procedure using ammonium chloride and then prepared for flow cytometry by staining with a panel of fluorescently-conjugated antibodies recognizing markers of hematopoietic stem and progenitor cells. Samples were then run on an LSR-II 12 color flow cytometer and data was analyzed using TreeStar's FlowJo software. Statistics between treatment groups were analyzed by student's T test.
Methods of administration and analysis of the effects of PTH either alone or in combination are described above. To determine whether bone anabolic, HSPC-expanding regimens of PTH stimulation alter the vascular niche, mice were first treated intensively with PTH and the hindlimb BM vasculature was analyzed. PTH increased BM vascular structures per hindlimb section (femur and tibia) by histomorphometric analysis (FIG. 9A) as well as the area occupied by vasculature measured within the tibial metaphysis (FIG. 9B). To clarify whether intensive PTH treatment was vasodilatory to existing vessels or increasing de novo endothelial structures, BMCs of PTH-treated mice were analyzed phenotypically by flow cytometry (FIG. 9D). Intensive PTH treatment expanded populations of BM endothelial cells defined by this immunophenotyic signature (FIG. 9E). […] This expansion of small BM blood vessels was also observed in close association with both trabecular and cortical bone when CD31 immunostaining was examined in the BM (FIG. 9E). The PTH-induced increase in endothelial structures was accompanied by an increase in perivascular α smooth muscle actin (αSMA+) (FIG. 9F), indicating a concomitant increase in perivascular, HSPC supportive stromal cells.

LSKs = experiment: Growth and survival of LSKs cultured in cytokine-supplemented media; type: cell-based, mice; conditions: increasing concentrations of αVEGF
[3] = αVEGF during TID PTH, effect on the effects of PTH
[4] = αVEGF, baseline or PTH-enhanced

bevacizumab: anti-VEGF-A monoclonal antibody bevacizumab (referred to as αVEGF); humanized monoclonal antibody
PTH-mediated expansion of HSCs (Flt3−, CD48−, CD150+ LSKs) ([1]; VEGF inhibition with PTH): did not diminish
HSPCs ([1]; anti-VEGF therapy with or without PTH): expands
PTH-induced expansion of multipotent progenitor/short term repopulating HSPCs (MPP/ST-HSPCs) ([1]; bevacizumab and PTH vs PTH alone): augmented
PTH-induced expansion of phenotypic and functional BM HSPCs [1]: further increased
PTH-induced expansion of phenotypic and functional BM HSPCs ([1]; listed as anti-VEGF-A treatment): augments
Flt3+, CD48−, CD150− LSKs ([1]; αVEGF in the setting of PTH): trend towards an increase
hematopoietic lineage−, Sca1+, c-kit+ cells (LSKs) ([1]; αVEGF in the setting of PTH): trend towards an increase
Flt3+, CD48−, CD150− LSKs ([1]; αVEGF treatment alone): expanded
hematopoietic lineage−, Sca1+, c-kit+ cells (LSKs) ([1]; αVEGF treatment alone): expanded
CD105+ mesenchymal cells (CD105+ mesenchymal cells): does not reduce
connectivity density of the trabecular bone (trabecular bone; [3]): augment
number of bony trabeculae (trabecular bone; [3]): augment
bone anabolic action of PTH (trabecular bone; αVEGF in combination with PTH): without blocking
trabecular bone volume (trabecular bone; [4]): did not significantly alter
trabecular spacing (trabecular bone; [4]): did not significantly alter
PTH-mediated expansion of BM endothelial cells ([2]; listed as Bevacizumab): blunted
PTH-mediated expansion of BM endothelial cells ([2]; listed as anti-VEGF therapy): blocks
PTH-mediated expansion of BM endothelial cells ([2]; listed as αVEGF): significantly decreased
growth and survival of LSKs (LSKs): not significantly affected
